According to patent US11339419B2, “Scavenger protein(s) for improved preservation of analyte detection sensor(s) and method(s) of use thereof” (Siemens Healthcare Diagnostics Inc., priority 2017, dated 2022):
Several values for one entry are separate records, joined by “and”; a condition that tells them apart may be missing. Equal entries are not always repeated.

Test system: creatininase (Toyobo)
Experiment: Toyobo Creatininase Enzyme Absorbance with BSA and Proclin 300
Type: biochemical
From the text: Absorbance measurements of the creatininase enzyme(s) were taken via spectrophotometer for each aqueous solution (represented as columns 1-5 in Tables 5-8—column 6 is a blank), the absorbance being directly proportional to the enzyme activity being measured-which for Tables 5-8 is creatininase enzyme activity. Accordingly, the higher the absorbance measurement, the higher the enzyme activity of creatininase. […] In addition, the mean values, standard deviations, and coefficients of variation are all presented for the enzyme activity/absorbance of each aqueous solution. All measurements were taken at 37° C.

[1] = Day 0, BSA 5 mg/mL only, no Proclin 300, listed as of 0.7% Proclin 300
[2] = Day 0, BSA 5 mg/mL only, no Proclin 300, listed as of 1.4% Proclin 300
[3] = Day 0, BSA 25 mg/mL only, no Proclin 300, listed as of 0.7% Proclin 300
[4] = Day 0, BSA 25 mg/mL only, no Proclin 300, listed as of 1.4% Proclin 300
[5] = Day 0, BSA 50 mg/mL only, no Proclin 300, listed as of 0.7% Proclin 300
[6] = Day 0, BSA 50 mg/mL only, no Proclin 300, listed as of 1.4% Proclin 300

bovine serum albumin [BSA] was tested, and the “Absorbance, solutions 7-11” value [1] was 0.749, the “MEAN absorbance, solutions 7-11” value [1] was 0.61 and the “Absorbance, solutions 7-11” value [2] was 0.569 and 0.573 and 0.57 and 0.582. The “MEAN absorbance, solutions 7-11” value [2] was 0.47, the “Absorbance, solutions 7-11” value [3] was 0.529 and the “MEAN absorbance, solutions 7-11” value [3] was 0.40. For the same substance, the “Absorbance, solutions 7-11” value [4] was 0.508 and 0.507 and 0.518 and 0.514, the “MEAN absorbance, solutions 7-11” value [4] was 0.41 and the “Absorbance, solutions 7-11” value [5] was 0.973. For the same substance, the “MEAN absorbance, solutions 7-11” value [5] was 1.39, the “Absorbance, solutions 7-11” value [6] was 0.488 and 0.464 and 0.506 and the “MEAN absorbance, solutions 7-11” value [6] was 0.39. For the same substance, the “MEAN absorbance, solutions 7-11” value (Day 4, BSA 5 mg/mL only, no Proclin 300, listed as of 0.7% Proclin 300) was 0.87, the “MEAN absorbance, solutions 7-11” value (Day 4, BSA 5 mg/mL only, no Proclin 300, listed as of 1.4% Proclin 300) was 0.78 and the “MEAN absorbance, solutions 7-11” value (Day 4, BSA 25 mg/mL only, no Proclin 300, listed as of 0.7% Proclin 300) was 0.68. For the same substance, the “MEAN absorbance, solutions 7-11” value (Day 4, BSA 25 mg/mL only, no Proclin 300, listed as of 1.4% Proclin 300) was 0.64, the “MEAN absorbance, solutions 7-11” value (Day 4, BSA 50 mg/mL only, no Proclin 300, listed as of 0.7% Proclin 300) was 0.56 and the “MEAN absorbance, solutions 7-11” value (Day 4, BSA 50 mg/mL only, no Proclin 300, listed as of 1.4% Proclin 300) was 0.54. For the same substance, the “MEAN absorbance, solutions 7-11” value (Day 14, BSA 5 mg/mL only, no Proclin 300, listed as of 0.7% Proclin 300) was 0.92, the “MEAN absorbance, solutions 7-11” value (Day 14, BSA 5 mg/mL only, no Proclin 300, listed as of 1.4% Proclin 300) was 0.90 and the “MEAN absorbance, solutions 7-11” value (Day 14, BSA 25 mg/mL only, no Proclin 300, listed as of 0.7% Proclin 300) was 0.71. For the same substance, the “MEAN absorbance, solutions 7-11” value (Day 14, BSA 25 mg/mL only, no Proclin 300, listed as of 1.4% Proclin 300) was 0.71, the “MEAN absorbance, solutions 7-11” value (Day 14, BSA 50 mg/mL only, no Proclin 300, listed as of 0.7% Proclin 300) was 0.58 and the “MEAN absorbance, solutions 7-11” value (Day 14, BSA 50 mg/mL only, no Proclin 300, listed as of 1.4% Proclin 300) was 0.57. The “absorbance of the creatininase enzyme compared to samples containing 0 mg/mL of BSA” value (day 4, Proclin 300 0.7%, 5, 25 and 50 mg/mL BSA) was “increased (albeit a mild increase)” and the “creatininase absorbance, solutions 7-11” value (days 4 and 14, only BSA, no Proclin 300) was “increased (or at least maintained)”.
